Laboratory results reported in ChEMBL document CHEMBL1772958, “In vivo activity of benzoyl ester clerodane diterpenoid derivatives from Dodonaea polyandra” (2011).
Active and inactive are the calls of the source. The calls are words filed in the database; no cut-off is given here.

Assays:
[1] = system: Mus musculus; assay: Antiinflammatory activity against TPA-induced ear edema in mouse assessed as ear thickness at 0.90 umol/ear, sc administered 30 mins after TPA challenge measured after 2 to 48 hrs; format: functional, organism-based
[2] = system: Mus musculus; assay: Antiinflammatory activity against TPA-induced ear edema in mouse assessed as ear thickness at 0.023 to 0.91 umol/ear, sc administered 30 mins after TPA challenge measured after 2 to 48 hrs; format: functional, organism-based
[3] = system: Mus musculus; assay: Antiinflammatory activity against TPA-induced ear edema in mouse assessed as ear thickness at 1.83 umol/ear, sc administered 30 mins after TPA challenge measured after 2 to 48 hrs; format: functional, organism-based
[4] = system: Mus musculus; assay: Antiinflammatory activity against TPA-induced ear edema in mouse assessed as ear thickness, sc administered 30 mins after TPA challenge measured after 2 to 48 hrs; format: functional, organism-based
[5] = system: Mus musculus; assay: Antiinflammatory activity against TPA-induced ear edema in mouse assessed as ear thickness at 0.22 umol/ear, topically administered 30 mins after TPA challenge measured after 8 hrs
[6] = system: Mus musculus; assay: Antiinflammatory activity against TPA-induced ear edema in mouse assessed as ear thickness at 0.088 to 1.77 umol/ear, sc administered 30 mins after TPA challenge measured after 2 to 48 hrs; format: functional, organism-based
[7] = system: Mus musculus; assay: Antiinflammatory activity against TPA-induced ear edema in mouse assessed as ear thickness at 0.91 umol/ear, sc administered 30 mins after TPA challenge measured after 2 to 48 hrs; format: functional

`CCC(=O)OCC(=O)[C@@]1(OC(=O)CC)[C@@H](C)C[C@H]2[C@@H]3CCC4=CC(=O)C=C[C@]4(C)[C@@]3(F)[C@@H](O)C[C@@]21C` was tested, and the inhibition [1] was “Active”.

With `C[C@@]1(CCc2ccoc2)[C@H](COC(=O)c2ccccc2)CC[C@]2(C)C(C(=O)O)=CCC[C@H]12` (relative stereo) the Activity [2] was “inactive” and the Activity [3] was “Active”.

`C[C@@]1(CCc2ccoc2)[C@H](COC(=O)c2ccccc2)CC[C@]2(C)C(C(=O)O)=C[C@H](O)C[C@H]12` (relative stereo) was tested, and the Activity [4] was “Active”, the “inhibition (INH)” value [5] was 70.2% and the Activity [6] was “Active”.

`C[C@@H]1CC[C@]2(C)C(C(=O)O)=C[C@H](OC(=O)c3ccccc3)C[C@@H]2[C@]1(C)CCc1ccoc1` (relative stereo) was tested, and the “inhibition (INH)” value [7] was 76.4%.
